Reference: patent US20260207581A1, “Small Molecule Inhibitor for Inflammatory Pain Inhibition” (University of Rochester, priority 2023, published 2026)
Entries after “also recorded” stand apart in the source; their conditions may differ.

Key:
[1] = system: inflammatory genes, matrix proteins, adhesion molecules and neuropeptides in TMJ tissues; assay: qRT-PCR analysis of gene expression in TMJ tissues of the CFA model; format: in vivo, rat
Protocol: To see if this reduction in inflammation and its associated damage could provide therapeutic benefit, the ability of PFI-2 to reduce inflammatory pain was examined. Animals were injected with saline or CFA and meal duration, a proxy for pain, was examined over a span of 21 days post-injection. […] Calcitonin gene-related peptide (CGRP) localization and expression in the synovial membrane were examined by immunostaining, where it was observed that CGRP was localization in synovial cells and neurons was increased in animals treated with CFA (FIG. 4C and FIG. 4D).
Expression of Osteogenic, Chondrogenic and Inflammatory Genes in a TMD model: To generate benchmark data for functional and mechanistic studies TMJ discs, synovia, and condyles are dissected and mRNA and protein expression levels of bone marker genes measured, including collagen type I (Col I), alkaline phosphatase (Alp), Runx2, Osterix (Osx), osteocalcin (Ocn), and bone sialoprotein (Ibsp), as well as cartilage marker genes such as collagen II, Sox 9, Col X, and biglycans. To characterize the effect of the YAP upregulator PFI-2 on inflammation and osteoclast formation, the expression of inflammatory cytokines (IL-1b, IL-6, TNF-α), NF-κB, MMPs (MMP2, MMP9 and MMP13), adhesion molecules (CDH11, ICAM, Integrin β1), and osteoclastogenesis-related genes (Rank, Rankl, Opg, Trap5b, and NFATc1) is detected using quantitative RT-PCR and Western blotting as described by Walker et al. (2010). Localization of these genes in the inflamed TMJ is further specified using immunofluorescence.
Inflammatory Changes in the Expression of Neuropeptides CGRP, NPY and SP1 in vivo and in vitro: For in vivo studies, rat TMJ discs, synovial membrane, condyle, trigeminal ganglia and trigeminal nucleus caudalis are collected bilaterally from saline-or CFA-treated rats for RNA and protein isolation, and histological analysis. The expression of CGRP, NPY, TAC1, and Galanin (GAL) at gene and protein levels are measured using qRT-PCR and Western blotting. For histology, tissues are fixed in 4% paraformaldehyde and prepared for paraffin sections as described previously (Lu et al, 2016a, b). Cells and neurons positive for CGRP, NPY, SP1 (an isoform of TAC1 protein) and Gal are visualized via immunofluorescence or immunohistochemistry using antibodies against CGRP, GAL, NYP, and TAC1 (Abcam). Expression levels of these genes and the numbers of immunoreactive cells are compared between different treatment groups.

SETD7 [2] = target: T1, SETD7 (Homo sapiens, UniProt Q8WTS6); settings: Francis et al. 2018; cited from earlier work
T1 sequence (Q8WTS6 1-366): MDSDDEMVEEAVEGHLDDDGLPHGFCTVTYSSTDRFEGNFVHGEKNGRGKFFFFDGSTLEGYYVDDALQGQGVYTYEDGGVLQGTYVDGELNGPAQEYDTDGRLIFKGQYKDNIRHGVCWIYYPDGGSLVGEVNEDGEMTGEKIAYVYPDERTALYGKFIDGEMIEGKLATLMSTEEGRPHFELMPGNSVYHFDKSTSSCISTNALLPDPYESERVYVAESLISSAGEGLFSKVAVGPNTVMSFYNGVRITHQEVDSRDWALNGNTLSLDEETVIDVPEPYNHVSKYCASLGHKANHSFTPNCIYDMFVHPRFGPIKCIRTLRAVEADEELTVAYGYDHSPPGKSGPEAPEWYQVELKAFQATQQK

inflammatory TMD pain = assay: Place escape/avoidance paradigm (PEAP) pain behavior in inflammatory TMD model; format: in vivo, rat; settings: for time spent in the dark half of the PEAP chamber: CFA plus PFI-2 injection
Protocol: Effect of PFI-2 Mediation on Inflammatory Conditions and Pain: Tmj pain is assessed as meal duration and via Place Escape Avoidance Paradigm (PEAP)-based measures (FIG. 1, Vertebrate Justification section). Testing is performed in both male and female rats as sex differences have been observed in humans and animals. Female animals are tested for the estrous cycle and the results are reported for the di-estrus, estrus, and pro-estrus phases (Kramer, Bellinger, 2009).
Peap Testing: the Chamber Used for the Place Escape Avoidance Paradigm (PEAP) testing is a 30 cm×30 cm acrylic box in which half the box is covered in black cloth. Each individual rat is placed into the chamber; due to their nocturnal circadian rhythm, rodents prefer the dark side of the chamber. Rats on the dark side of the chamber receive a stimulus at the injected side, whereas rats with their head on the clear side of the chamber are stimulated on the contralateral non-injected side with a 60 g filament every 15 seconds. The stimulus is administered below the eye and caudal to the whisker pad. The time spent on the dark side of the box is recorded in 5 min bins, testing is performed for a total of 30 min on the test day and thereafter on a one day a week basis for 8 weeks as previously described (Stinson et al. 2017; 2019).
Injection of PFI-2-Col I, PFI-2-decm Hydrogel and PFI-2-exosome solution into the TMJ: Four groups (SV, SP, CV, and CP) receive injections of the saline plus carrier, saline plus PFI-2 carrier, CFA plus carrier, or CFA plus PFI-2 carrier, respectively. The TMJ injection procedure is described in FIG. 1. Forty-eight hours after the injection of saline or CFA solution, PFI-2 (10 μM) in a carrier, or the carrier alone, is injected every two days, or once within 10 days. The injection times and effect duration of PFI-2 on both inflammatory degeneration and pain are optimized.
PEAP behavior of animals was investigated after administration of saline, CFA, or CFA and a PFI-2 carried by either a Col I hydrogel or a dECM hydrogel.

SETD7 [3] = target: T2, SETD7 (Rattus norvegicus, UniProt A0A8I6A0F7); assay: SETD7 and YAP localization and protein methylation in TNF-α treated RSSCs; format: cell-based; settings: RSSCs treated with TNF-α
T2 construct: endogenous in cells; host or cells: primary rat synovial mesenchymal stem cells (RSSCs)
Protocol: As a first step, the expression and localization of SETD7 and YAP are examined in RCs and RSSCs at the mRNA and protein level under physiological and inflammatory conditions. RCs and RSSCs are cultured with or without TNF-α for 6, 12, and 24 hours. Proteins and mRNAs from cultured cells are isolated for RT-PCR and Western Blot analyses. The localization of SETD7 and YAP in relationship toward each other is visualized by immunofluorescence, and the methylation levels and distribution of YAP in nuclei and cytoplasm are determined by Western blotting using anti-SETD7 and anti-YAP antibodies (Abcam). To determine whether YAP and SETD7 interact, co-immunoprecipitation assays is performed, and the degree of interaction between SETD7 and YAP is compared between TNF-α-treated cells and control cells (Ito et al. 2011).
Rat synovial mesenchymal stem cells (RSSCs) were cultured and examined for SETD7 nuclear localization.

TMJ tissues = assay: CFA injection rat model of inflammatory TMD: swelling, uCT and histology of TMJ tissues; format: in vivo
[4] = system: SETD1, IL-6 and MMP2 expression; assay: qRT-PCR and Western blotting of selected inflammatory genes under TNFα; format: cell-based, rat
RSSCs = assay: BrdU labeling and β-gal senescence staining of TNF-α treated RSSCs; format: cell-based, rat; settings: RSSCs treated with TNFα
IL-1β expression = assay: Cultured condyle organs treated with IL-6, IL-1β immunostaining; format: cell-based; settings: IL-6 plus PFI-2
[5] = system: TNFα-induced cell infiltration; assay: Subcutaneous implantation of coated collagen sponges; format: in vivo; settings: sponges coated with TNFα plus PFI-2
Excerpt: In vivo analysis was examined by subcutaneous implantation of collagen sponges coated with PBS, TNF-α, or TNF-α and PFI-2.

YAP1 = assay: YAP / Sox9 immunolocalization in TMJ discs and condylar growth plate of the CFA model; format: in vivo, rat
Protocol: Because of this initial success, it was further examined if PFI-2 treatment could rescue inhibition of chondrocyte maturation and return YAP expression in the condylar growth plate of animals suffering from inflammation. To test the ability to repair damage, animals were injected with saline or CFA. After inflammation, a subset of the CFA-treated animals were also injected with PFI-2. Tissue samples from each were stained with H&E, safranin O, and PCNA, YAP was detected by immunostaining, and cartilage differentiation was determined by immunostaining for Sox 9 (FIG. 3A-FIG. 3O). The samples were also examined by RT-PCR for expression levels of collagen 2, collagen 10, Mmp 13 metalloproteinase, Runx2 bone transcription factor, and Sox 9 (FIG. 3P).
Here, the role of the Hippo pathway effectors YAP and TAZ is elucidated in an inflammatory TMD models. YAP and TAZ interact with DNA-binding factors of the TEAD family in the nucleus to regulate gene expression. […] First, the expression and subcellular localization of YAP is characterized under physiological and inflammatory conditions in TMJ tissues, RSSCs and RCs. The expression pattern of the YAP protein in TMJ tissues are elucidated by immunohistochemistry using anti-YAP antibody and the expression levels of YAP mRNA and protein is determined using qRT-PCR and Western blotting. […]

[6] = PFI-2 injected following CFA induction of inflammatory conditions

T2 sequence (A0A8I6A0F7 1-367): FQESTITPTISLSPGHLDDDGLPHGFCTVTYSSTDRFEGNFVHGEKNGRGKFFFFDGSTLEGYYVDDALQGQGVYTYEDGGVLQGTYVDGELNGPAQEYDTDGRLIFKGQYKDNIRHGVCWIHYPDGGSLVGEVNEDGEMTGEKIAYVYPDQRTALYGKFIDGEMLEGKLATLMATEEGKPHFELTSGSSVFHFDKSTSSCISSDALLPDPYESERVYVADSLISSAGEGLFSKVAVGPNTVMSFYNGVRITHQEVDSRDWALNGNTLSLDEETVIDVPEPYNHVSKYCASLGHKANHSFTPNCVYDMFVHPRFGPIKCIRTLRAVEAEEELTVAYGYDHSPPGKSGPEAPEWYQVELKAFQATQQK

## O=C([C@@H](Cc1cccc(C(F)(F)F)c1)NS(=O)(=O)c1cc(F)c2c(c1)CCNC2)N1CCCC1 [PFI-2]
[1]; CFA-PFI-treated (CP) vs CFA-treated (CV)
  expression of CGRP, NPY and TAC in TMJ tissues (qRT-PCR): reduced to near-normal levels
[1]; CFA-PFI-treated (CP) vs CFA-treated (CV), listed as PFI
  expression of CGRP, NPY and TAC in TMJ tissues (qRT-PCR): almost reduced to normal levels
[1]; rats, CFA model
  inflammatory gene / cytokine expression in TMD tissues (qRT-PCR): inhibited the expression of inflammatory cytokines; also recorded: downregulated inflammatory gene expression
[1]; rats, CFA-PFI-treated (CP) vs CFA-treated (CV)
  matrix protein and adhesion molecule expression in TMJ tissues (qRT-PCR): reversed the upregulation
SETD7 [2]
  inflammation and tissue regeneration in periodontal diseases: suppresses inflammation and promotes tissue regeneration
Inflammatory TMD pain; collagen gel (Col I hydrogel) as carrier
  time spent in the dark half of the PEAP chamber: significantly rescued; also recorded: significantly increased
Inflammatory TMD pain; dECM hydrogel as carrier, compared with collagen carrier
  time spent in the dark half of the PEAP chamber: far more significant; also recorded: further improved
Inflammatory TMD pain; inflammatory TMD model
  inflammatory pain: greatly reduced pain; also recorded: reduction in inflammatory pain; also recorded: reduced inflammatory pain
Inflammatory TMD pain; mice subjected to inflammatory temporo-mandibular joint pain
  time on the dark side of PEAP chambers: dramatically reduced time
SETD7 [3]
  SETD7 nuclear localization: blocked the effect of TNF-α on SETD7 nuclear localization
  global protein methylation levels in whole cell lysates (Western blot): reduces methylation; also recorded: inhibited this effect
TMJ tissues; [6]
  inflammation-induced retardation of chondrocyte differentiation / condylar growth plate structure: able to reverse it; also recorded: restored condyle growth plate structure and function; also recorded: reversed
TMJ tissues; inflammatory conditions, three PFI-2 delivery modalities
  bone volume, mechanical properties and thickness of functional condyle layers: restores outcomes to near-physiological values
TMJ tissues; rats, 48 hours after injection, CFA-induced (10% increase with CFA)
  regional swelling / distance between the two ear tragi: no swelling was observed
TMJ tissues; rats, CFA model
  collagen fibers in the TMJ disc (Pico Sirius red staining): lightened; also recorded: conversion to light red, thinner fibers
  structure and function of fibrocartilage in the TMJ (H&E): rescued the structure and function of fibrocartilage
  thickness of the fibrous and proliferative cell layers / hypertrophic zones (H&E): rescued; also recorded: reduced
TMJ tissues; rats, CFA model, paraffin-embedded TMJ tissues
  TMJ disc thickening and fusion with the condyle (H&E): rescued; also recorded: detachment of the TMJ disc and condyle
TMJ tissues; rats, CFA plus PFI-2 injection
  condylar bone volume and joint space between temporal fossa and condyle (uCT): rescued
TMJ tissues; rats, CFA-induced inflammation
  fibrous adhesion of TMJ disc and condylar surface (Masson trichrome): prevented the attachment; also recorded: released fibrous adhesion; also recorded: de-attached the TMJ disc from the condyle
[4]
  TNFα-induced gene dysregulation (Western blotting): confirmed
[4]; PFI-2 at 1, 10, and 50 μM
  TNFα-induced upregulation of SETD1, IL-6 and MMP2 expression (qRT-PCR): inhibited by treatment with PFI-2 in a dose-dependent manner; also recorded: inhibited TNFα-induced upregulation in a dose-dependent manner
RSSCs
  BrdU positive proliferating cells: restored the proliferative potential of inflammation-compromised cells; also recorded: restored cellular proliferation
  β-gal+ cell senescence: inhibited TNFα-induced cell senescence
IL-1β expression
  IL-1β expression (immunostaining): inhibited the expression of IL-18; also recorded: inhibited IL-1β expression
  swelling of the articular surface (thickness of fibrous and proliferative cell zones): reversed the swelling of the articular surface
[5]
  cell infiltration into collagen sponges: reversed inflammatory cell infiltration in tissue implants; also recorded: reversed this effect
  extracellular matrix remodeling in collagen sponges: promoted extracellular matrix remodeling; also recorded: promoted ECM remodeling
YAP1; [6]
  YAP expression and localization in the condylar growth plate: rebalance YAP1 expression; also recorded: re-localized YAP1 and SOX9 proteins; also recorded: returned YAP expression
YAP1; rats, CFA model
  YAP1 immunolocalization in TMJ discs: translocated YAP into nuclei
